Experimental data: patent US10202413B2, “Neuroactive enantiomeric 15-, 16- and 17-substituted steroids as modulators for GABA type-A receptors” (priority 2013, dated 2019)
Like-named read-outs stand apart in the source and are kept apart here. Marks after values point to notes of the source that are not given here.

Key:
[1] = target: picrotoxin binding site on GABAA receptors; test: [35S]-TBPS displacement (inhibition of [35S]-TBPS binding); settings: non-competitive displacement of [35S]-TBPS; ± standard error of the mean
Description: The IC50 values for the compounds of the examples as non-competitive displacers of [^35S]-TBPS from the picrotoxin binding site on GABAA receptors are reported in Table 1.
Results presented are from duplicate experiments performed in triplicate. Error limits are calculated as standard error of the mean. Methods used are known in the art (see, e.g., Jiang, et al., Neurosteroid analogues. 9. Conformationally constrained pregnanes: structure-activity studies of 13,24-cyclo-18,21-dinorcholane analogues of the GABA modulatory and anesthetic steroids (3α,5α)- and (3α,5β)-3-hydroxypregnan-20-one. J. Med. Chem. 2003, 46, 5334-5348).

[2] = target: T1, rat α1β2γ2L type GABAA receptors expressed in Xenopus laevis oocytes (Rattus norvegicus, UniProt P18508+P62813+P63138, INS375LLRMFSFK); test: Oocyte electrophysiology: potentiation of chloride currents mediated by 2 μM GABA, and direct gating; type: cell-based; settings: ± SEM (N≥4); for ratio of currents measured in the presence/absence of added compound, 0.1 μM: 0.1 μM compound; for ratio of currents measured in the presence/absence of added compound, 0.1 μM / ratio of currents measured in the presence/absence of added compound, 1.0 μM / ratio of currents measured in the presence/absence of added compound, 10 μM: 2 μM GABA; for ratio of currents measured in the presence/absence of added compound, 1.0 μM: 1.0 μM compound; for ratio of currents measured in the presence/absence of added compound, 10 μM: 10 μM compound; for (gating) 10 μM: ratio of compound only current/GABA current: direct current gated by 10 μM compound in the absence of GABA
T1 construct: expressed in transfected cells; host or cells: Xenopus laevis oocytes
T1 sequence (P62813 28-455, stated change not applied): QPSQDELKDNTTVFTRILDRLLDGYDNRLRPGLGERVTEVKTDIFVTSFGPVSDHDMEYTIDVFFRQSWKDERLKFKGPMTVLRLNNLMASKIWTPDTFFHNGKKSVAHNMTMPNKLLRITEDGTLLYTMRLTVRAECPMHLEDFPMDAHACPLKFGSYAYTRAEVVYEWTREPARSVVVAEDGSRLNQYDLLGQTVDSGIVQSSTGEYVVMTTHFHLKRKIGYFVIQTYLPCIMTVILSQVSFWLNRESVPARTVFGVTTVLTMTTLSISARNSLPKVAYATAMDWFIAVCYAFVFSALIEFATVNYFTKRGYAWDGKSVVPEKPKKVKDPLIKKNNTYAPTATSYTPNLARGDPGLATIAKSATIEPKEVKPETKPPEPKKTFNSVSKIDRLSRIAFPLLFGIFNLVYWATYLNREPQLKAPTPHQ
T1 sequence (P63138 26-474, stated change not applied): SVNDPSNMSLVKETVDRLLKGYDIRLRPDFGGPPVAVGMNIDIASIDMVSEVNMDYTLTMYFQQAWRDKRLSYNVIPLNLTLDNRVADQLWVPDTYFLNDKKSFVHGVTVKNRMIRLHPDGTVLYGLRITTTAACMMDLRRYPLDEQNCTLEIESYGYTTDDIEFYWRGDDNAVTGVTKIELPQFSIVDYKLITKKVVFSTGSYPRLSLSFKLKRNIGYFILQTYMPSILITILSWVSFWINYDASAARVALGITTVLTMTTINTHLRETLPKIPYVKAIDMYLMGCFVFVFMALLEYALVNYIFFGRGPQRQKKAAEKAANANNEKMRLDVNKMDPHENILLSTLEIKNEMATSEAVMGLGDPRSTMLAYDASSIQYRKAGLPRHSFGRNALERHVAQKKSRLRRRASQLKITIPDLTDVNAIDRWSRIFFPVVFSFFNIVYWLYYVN
T1 sequence (P18508 with tags, fused parts or gaps INS375LLRMFSFK): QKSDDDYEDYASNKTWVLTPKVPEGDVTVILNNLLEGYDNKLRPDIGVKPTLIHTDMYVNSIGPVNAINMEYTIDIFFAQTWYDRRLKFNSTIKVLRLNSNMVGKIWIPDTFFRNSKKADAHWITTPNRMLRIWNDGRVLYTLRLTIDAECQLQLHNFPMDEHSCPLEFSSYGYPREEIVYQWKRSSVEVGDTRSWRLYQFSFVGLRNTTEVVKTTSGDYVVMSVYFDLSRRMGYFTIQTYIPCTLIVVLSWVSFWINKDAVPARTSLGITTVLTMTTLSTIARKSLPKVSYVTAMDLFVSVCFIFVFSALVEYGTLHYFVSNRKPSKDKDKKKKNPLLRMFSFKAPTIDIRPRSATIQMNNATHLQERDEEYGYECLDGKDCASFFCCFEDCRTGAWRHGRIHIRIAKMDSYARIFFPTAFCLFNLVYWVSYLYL
Description: The compounds of the present disclosure were evaluated for the ability to potentiate chloride currents mediated by 2 μM GABA at rat α1β2γ2L type GABAA receptors expressed in Xenopus laevis oocytes and the results are shown in Table 2.
The GABA concentration used for the control response was 2 μM. Each compound was evaluated on at least four different oocytes at the concentrations indicated, and the results reported are the ratio of currents measured in the presence/absence of added compound. Gating represents direct current gated by 10 μM compound in the absence of GABA, and this current is reported as the ratio of compound only current/[…] current. Error limits are calculated as standard error of the mean (N≥4). Receptor expression and whole-cell and single-channel recordings were carried out as described previously (see Jiang, et al., Neurosteroid analogues. 9. Conformationally constrained pregnanes: structure-activity studies of 13,24-cyclo-18,21-dinorcholane analogues of the GABA modulatory and anesthetic steroids (3α,5α)- and (3α,5β)-3-hydroxypregnan-20-one. J. Med. Chem. 2003, 46, 5334-5348).

Tadpole = Tadpole loss of righting (LRR) and loss of swimming (LSR) reflexes; type: in vivo; settings: for EC50: ± SEM; for tadpoles that lost LRR / tadpoles that lost LSR: concentration of 3 μM, number of 10 tadpoles
From the text: Table 3 discloses the anesthetic effects of the compounds of the present disclosure. In particular, the anesthetic effect of the compounds of the present disclosure on Loss of Righting Reflex (LRR) and Loss of Swimming Reflex (LSR).
Methods used are known in the art (see, e.g., Jiang, et al., Neurosteroid analogues. 9. Conformationally constrained pregnanes: structure-activity studies of 13,24-cyclo-18,21-dinorcholane analogues of the GABA modulatory and anesthetic steroids (3α,5α)- and (3α,5β)-3-hydroxypregnan-20-one. J. Med. Chem. 2003, 46, 5334-5348). Error limits are calculated as standard error of the mean (N=10 or more animals at each of five or more different concentrations).

[3] = loss of righting reflex, read-out: Tadpole LRR EC50
[4] = loss of swimming reflex, read-out: Tadpole LSR EC50

SMILES	IC50 [1] [nM]	ratio of currents measured in the presence/absence of added compound, 0.1 μM [2]	ratio of currents measured in the presence/absence of added compound, 1.0 μM [2]	ratio of currents measured in the presence/absence of added compound, 10 μM [2]	(gating) 10 μM: ratio of compound only current/GABA current [2]	EC50 (Tadpole; [3]) [nM]	EC50 (Tadpole; [4]) [nM]	melting point [°C]	tadpoles that lost LRR (Tadpole)	tadpoles that lost LSR (Tadpole)
C[C@@]12CC[C@@H]3[C@H](CC[C@H]4C[C@@H](O)CC[C@]43C)[C@H]1CC(=O)C2 [KK-97, (3β,5α,8α,9β,10α,13α,14β)-3-Hydroxyandrostan-16-one]	112 ± 7	1.75 ± 0.24	6.15 ± 0.41	30.62 ± 2.14	0.16 ± 0.04	490 ± 110	1730 ± 30	132 to 134		
C[C@@]12CC[C@@H]3[C@H](CC(=O)[C@@H]4C[C@@H](O)CC[C@@]34C)[C@H]1CC(=O)C2 [MQ-124, (3β,5β,8α,9β,10α,13α,14β)-3-Hydroxyandrostane-6,16-dione]	8950 ± 1860	0.68 ± 0.03	0.85 ± 0.03	1.57 ± 0.05	−0.01 ± 0	> 10000	> 10000	205 to 207		
C[C@@]12CC[C@H](O)C[C@H]1CC[C@@H]1[C@H]3CC(=O)C[C@@H]3CC[C@H]12 [KK-114]	1520	0.93 ± 0.02	1.13 ± 0.02	3.56 ± 0.15	0.01 ± 0.02	3640 ± 2170	> 10000	174 to 177		
C[C@@]12CC[C@@H]3[C@H](CC[C@@H]4C[C@@H](O)CC[C@]43C)[C@H]1CC(=CC#N)C2 [KK-138, 2-[(3β,5β,8α,9β,10α,13α,14β)-3-Hydroxyandrostan-16-ylidene]-acetonitrile]	32 ± 3	1.63 ± 0.23	5.87 ± 1.65	10.16 ± 3.18	0.14 ± 0.06	140	870	162 to 172		
C[C@@]12CC[C@H](O)C[C@H]1CC[C@H]1[C@H]2CC[C@@]2(C)C=C(C#N)C[C@H]12 [KK-141, (3β,5β,8α,9β,10α,13α,14β)-3-Hydroxyandrost-16-ene-16-carbonitrile]	154 ± 19	1.08 ± 0.11	1.35 ± 0.08	1.58 ± 0.13	0.08 ± 0.06			247 to 249	5/10^b	0/10^c
CO[C@H]1CC[C@]2(C)CC[C@@H]3[C@H](CC[C@@H]4C[C@@H](O)CC[C@]43C)[C@@H]12 [MQ-117, (3β,5β,8α,9β,10α,13α,14β,15α)-15-Methxoyandrostan-3-ol]	19 ± 8	3.43 ± 0.29	11.10 ± 1.16	26.20 ± 2.91	0.06 ± 0.02	79 ± 3	330	137 to 139		
C[C@@]12CC[C@@H]3[C@H](CC[C@H]4C[C@@H](O)CC[C@]43C)[C@H]1C[C@@H](C#N)C2 [KK-137, (3β,5α,8α,9β,10α,13α,14β,16α)-3-Hydroxyandrost-16-carbonitrile]	22 ± 4	2.32 ± 0.17	7.08 ± 0.54	10.17 ± 0.68	−0.04 ± 0.08	130	550 ± 10	155 to 157		
C[C@]1(O)CC[C@]2(C)[C@@H](CC[C@H]3[C@H]2CC[C@@]2(C)C(=O)CC[C@H]32)C1 [KK-26, (3β,5α,8α,9β,10α,13α,14β)-3-Hydroxy-3-methylandrostan-17-one]	290 ± 33	1.38 ± 0.10	5.10 ± 0.64	23.74 ± 2.88	0.49 ± 0.18	1880	5480 ± 200			
O=C1C[C@@H]2CC[C@@H]3[C@H](CC[C@@H]4C[C@@H](O)CC[C@H]43)[C@H]2C1								168 to 169		
C[C@]1(O)CC[C@]2(C)[C@H](CC[C@H]3[C@H]2CC[C@@]2(C)C(=O)CC[C@H]32)C1 [KK-23, (3β,5β,8α,9β,10α,13α,14β)-3-Hydroxy-3-methylandrostan-17-one]	185 ± 28	1.11 ± 0.15	3.31 ± 0.43	19.74 ± 5.64	0.09 ± 0.02	930 ± 530	2810 ± 10	183 to 185		
CO[C@@H]1C[C@@H]2[C@H]3CC[C@@H]4C[C@@H](O)CC[C@@]4(C)[C@@H]3CC[C@@]2(C)C1 [KK-134, (3β,5β,8α,9β,10α,13α,14β,16α)-16-Methoxyandrostan-3-ol]	92 ± 9	1.16 ± 0.07	5.22 ± 1.09	8.27 ± 1.27	0.04 ± 0.05			169 to 171	10/10^a	10/10^a
C[C@@]12CC[C@H]3[C@@H]4CC[C@H](O)C[C@H]4CC[C@@H]3[C@H]1CC(=O)C2 [KK-103]	238 ± 21	0.97 ± 0.02	2.43 ± 0.02	10.52 ± 0.61	0.02 ± 0.01	1160 ± 210	5480 ± 120	160 to 162		
C[C@@]12CC[C@H]3[C@@H]4CC[C@H](O)C[C@H]4CC[C@@H]3[C@H]1CCC2=O [KK-18, (3β,5β,8α,9β,10α,13α,14β)-3-Hydroxyestran-17-one]	627 ± 100	1.07 ± 0.05	1.64 ± 0.11	9.34 ± 1.36	0.13 ± 0.12	3200 ± 2030	> 10000			
